# Marks after values point to notes of the source that are not given here.
# What was measured:
# dispase = target: T1, dispase (Paenibacillus polymyxa, UniProt P29148); assay: Protease-catalyzed hydrolysis, restored DBDY fluorescence (selectivity, FIGS. 11-19); type: biochemical, bacillus polymyxa; conditions: substrate 2.5 μM, protease 0.1 μM, two hours; hydrolysate amino acid-INH
# T1 construct: dispase derived from bacillus polymyxa; purchased Sigma-Aldrich Chemical Co; host or cells: Bacillus polymyxa
# Procedure: The reaction was performed under alkaline conditions.
# The hydrolysis reaction was performed for two hours. […] Each experiment was repeated at least three times.
# thermolysin [1] = target: T2, thermolysin (Bacillus thermoproteolyticus, UniProt P00800); conditions: substrate 2.5 μM, protease 0.1 μM, two hours; hydrolysate amino acid-INH
# Procedure: (§1) For the meaningful comparison of proteases, a hydrolysis reaction was performed under the optimum conditions as reported in other documents (regarding chymotrypsin, subtilisin, thermolysin and pepsin, refer to R. Beynon, J. S. Bond, Proteolytic Enzymes (Second Edition), Oxford University Press, 2001, pp. 295-316; regarding trypsin, proteinase K, carboxy peptidase A, collagenase, dispase, aspergillopepsin, papain, chymopapain, bromelain, cathepsin B, cathepsin L, and cathepsin S, refer to the catalog of Sigma-Aldrich Corporation).
# (§2) Before the reaction, the mixtures of the reaction buffer solutions and proteases were previously incubated for 30 minutes in a water bath in which the temperature was adjusted to an analysis temperature. The hydrolysis reaction was initiated by adding a substrate dissolved in DMSO. The volume of the added substrate solution was controlled such that the final concentration of DMSO was lower than 1.5% (v/v).
# The λex and λem were respectively adjusted to 284 nm and 410 nm with respect to papain, chymopapain, bromelain, cathepsins, aspergillopepsin and pepsin, and the λex and λem were respectively adjusted to 320 nm and 410 nm with respect to chymotrypsin, trypsin, subtilisin, proteinase K, thermolysin, carboxypeptidase A, collagenase and dispase. The reaction was performed under alkaline conditions.
# The fluorescence measured at the end of the reaction was expressed as a final fluorescence.
# The initial concentrations of each substrate and protease were respectively set to 2.5 μM and 0.1 μM. The hydrolysis reaction was performed for two hours. Reference numbers on an X-axis denoted the following: C1=papain; C2=chymopapain; C3=bromelain; S1=chymotrypsin; S2=trypsin; S3=subtilisin; S4=proteinase K; M1=thermolysin; M2=carboxypeptidase A; M3=dispase; M4=collagenase; A1=pepsin; and A2=aspergillopepsin. Each experiment was repeated at least three times.
# pepsin = target: T3, pepsin (Sus scrofa, UniProt P00791); assay: Degree of hydrolysis by protease (Table 3); type: biochemical, pig; conditions: after 2 hours; protease 10 μM; substrate 0.2 mM (G1-G3, L1-L3) or 0.1 mM (G4, L4); n.d. = no hydrolysis was detected; hydrolysate INH
# T3 construct: pepsin derived from pig gastric mucosa; purchased Sigma-Aldrich Chemical Co; host or cells: pig gastric mucosa
# Procedure: (§3) A hydrolysate was measured using a HPLC system.
# papain = target: T4, papain (Carica papaya, UniProt P00784); assay: Degree of hydrolysis by protease (Table 3); type: biochemical, papaya latex; conditions: after 2 hours; protease 10 μM; substrate 0.2 mM (G1-G3, L1-L3) or 0.1 mM (G4, L4); hydrolysate INH
# T4 construct: papain and chymopapain derived from papaya latex; purchased Sigma-Aldrich Chemical Co; host or cells: papaya latex
# T4 sequence (P00784 134-345): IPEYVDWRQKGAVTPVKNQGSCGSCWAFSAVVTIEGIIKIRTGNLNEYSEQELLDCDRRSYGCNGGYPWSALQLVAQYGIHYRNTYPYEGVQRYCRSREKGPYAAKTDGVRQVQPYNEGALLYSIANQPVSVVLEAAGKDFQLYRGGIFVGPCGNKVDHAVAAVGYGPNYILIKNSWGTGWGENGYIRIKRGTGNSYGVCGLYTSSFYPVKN
# Procedure: as §3
# chymotrypsin = target: T5, chymotrypsin (Bos taurus, UniProt P00766); assay: Degree of hydrolysis by protease (Table 3); type: biochemical, bovine; conditions: after 2 hours, protease 10 μM, substrate 0.2 mM (G1-G3, L1-L3) or 0.1 mM (G4, L4), n.d. = no hydrolysis was detected, hydrolysate Gly-INH (G), Lys-INH (L1-L3)
# T5 construct: chymotrypsin and trypsin derived from fetal bovine pancreas; purchased Sigma-Aldrich Chemical Co; host or cells: bovine pancreas
# Procedure: as §3
# trypsin = target: T6, trypsin (Bos taurus, UniProt P00760); assay: Degree of hydrolysis by protease (Table 3); type: biochemical, bovine; conditions: after 2 hours; protease 10 μM; substrate 0.2 mM (G1-G3, L1-L3) or 0.1 mM (G4, L4); n.d. = no hydrolysis was detected; hydrolysate INH
# T6 construct: chymotrypsin and trypsin derived from fetal bovine pancreas; purchased Sigma-Aldrich Chemical Co; host or cells: bovine pancreas
# T6 sequence (P00760 24-246): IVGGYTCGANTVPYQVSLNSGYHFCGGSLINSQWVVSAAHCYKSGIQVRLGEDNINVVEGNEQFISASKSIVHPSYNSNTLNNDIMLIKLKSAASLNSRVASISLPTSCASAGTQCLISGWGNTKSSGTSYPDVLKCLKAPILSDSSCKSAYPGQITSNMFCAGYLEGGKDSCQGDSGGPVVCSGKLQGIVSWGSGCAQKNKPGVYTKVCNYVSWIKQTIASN
# Procedure: as §3
# thermolysin [2] = target: T2, thermolysin; conditions: after 2 hours; protease 10 μM; substrate 0.2 mM (G1-G3, L1-L3) or 0.1 mM (G4, L4); n.d. = no hydrolysis was detected; hydrolysate INH
# Procedure: as §1, §2
# A hydrolysate was measured using a HPLC system. In order to prepare a sample, a hydrolysis reaction was terminated by adding 2% (v/v) 1M HCl with respect to a serine protease, cysteine protease and metalloprotease, and adding 1M NaOH with respect to an aspartic protease. The separation was performed using the mixture of 10 mM-ammonium bicarbonate and acetonitrile as an eluent in C-18 column (particle size: 5 μm, 250 mm×4.6 mm, pore size: 80 Å, Phenomenex, USA). The elution was performed for 15 minutes, while the linear gradient of acetonitrile was increased from 0 to 60%. The flow rate and separation temperature of the eluent were maintained at 1 mL min^−1 and 35° C. The hydrolysate was detected at a wavelength of 254 nm.
# Based on the report that a hydrophobic amino acid such as phenylalanine was preferred at a P2 position in most of the papain-like cysteine proteases, Boc-aromatic amino acid-Gly-INH and Boc-aromatic amino acid-Lys-INH were prepared in particular, and experimented as a substrate with respect to chymotrypsin, trypsin, papain, pepsin and thermolysis.
# T3 sequence (P00791 60-385): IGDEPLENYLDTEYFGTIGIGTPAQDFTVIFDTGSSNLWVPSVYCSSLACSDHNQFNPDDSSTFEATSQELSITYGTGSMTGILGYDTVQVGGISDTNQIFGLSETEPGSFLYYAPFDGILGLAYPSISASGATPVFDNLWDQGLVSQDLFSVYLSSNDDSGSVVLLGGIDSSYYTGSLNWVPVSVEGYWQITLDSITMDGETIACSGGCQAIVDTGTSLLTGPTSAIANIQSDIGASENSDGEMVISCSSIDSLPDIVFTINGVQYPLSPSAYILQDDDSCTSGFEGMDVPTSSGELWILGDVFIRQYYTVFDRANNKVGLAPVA
# T1 sequence (P29148 287-590): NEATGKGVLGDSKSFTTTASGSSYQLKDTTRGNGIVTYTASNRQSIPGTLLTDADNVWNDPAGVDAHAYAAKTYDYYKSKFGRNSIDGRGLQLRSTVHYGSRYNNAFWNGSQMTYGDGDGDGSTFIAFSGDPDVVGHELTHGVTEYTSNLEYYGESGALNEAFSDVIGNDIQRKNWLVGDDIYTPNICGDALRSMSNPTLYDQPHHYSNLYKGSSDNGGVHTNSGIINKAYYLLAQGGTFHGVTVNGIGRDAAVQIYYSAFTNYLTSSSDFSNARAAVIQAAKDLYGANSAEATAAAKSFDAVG
# T2 sequence (P00800 233-548): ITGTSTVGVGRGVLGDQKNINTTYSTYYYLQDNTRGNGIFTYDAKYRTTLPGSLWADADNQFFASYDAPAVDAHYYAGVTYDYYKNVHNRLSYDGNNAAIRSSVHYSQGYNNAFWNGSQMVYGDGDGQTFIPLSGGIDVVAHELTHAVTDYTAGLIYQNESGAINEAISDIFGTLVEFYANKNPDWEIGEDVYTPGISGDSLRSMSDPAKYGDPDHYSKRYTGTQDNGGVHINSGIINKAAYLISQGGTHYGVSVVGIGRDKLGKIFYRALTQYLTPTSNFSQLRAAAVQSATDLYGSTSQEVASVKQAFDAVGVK
Compound,"sensitivity for dispase (hydrolysis, increased fluorescence) (dispase)","sensitivity for thermolysin (hydrolysis, increased fluorescence) (thermolysin [1])",degree of hydrolysis by Pepsin (pepsin),degree of hydrolysis by Papain (papain),degree of hydrolysis by Chymotrypsin (chymotrypsin),degree of hydrolysis by Trypsin (trypsin),degree of hydrolysis by Thermolysin (thermolysin [2])
CSCC[C@H](NC(=O)C(Cc1ccc(O)c(-c2cc(CC(NC(=O)OC(C)(C)C)C(=O)N[C@@H](CCSC)C(=O)NNC(=O)c3ccncc3)ccc2O)c1)NC(=O)OC(C)(C)C)C(=O)NNC(=O)c1ccncc1 (some centres unmarked) [DBDY-(Met-INH)2],high sensitivity,high sensitivity,,,,,
CC(C)(C)OC(=O)NC(Cc1ccc(O)c(-c2cc(CC(NC(=O)OC(C)(C)C)C(=O)N[C@@H](Cc3ccccc3)C(=O)NNC(=O)c3ccncc3)ccc2O)c1)C(=O)N[C@@H](Cc1ccccc1)C(=O)NNC(=O)c1ccncc1 (some centres unmarked) [DBDY-(Phe-INH)2],high sensitivity,high sensitivity,,,,,
CC[C@H](C)[C@H](NC(=O)C(Cc1ccc(O)c(-c2cc(CC(NC(=O)OC(C)(C)C)C(=O)N[C@H](C(=O)NNC(=O)c3ccncc3)[C@@H](C)CC)ccc2O)c1)NC(=O)OC(C)(C)C)C(=O)NNC(=O)c1ccncc1 (some centres unmarked) [DBDY-(Ile-INH)2],high sensitivity,high sensitivity,,,,,
"CC(C)(C)OC(=O)NC(Cc1ccccc1)C(=O)NCC(=O)NNC(=O)c1ccncc1 (stereo not drawn) [Substrate G2, Boc-Phe-Gly-INH]",,,1.61 ± 0.05%,51.0 ± 3.5%,28.6 ± 3.4 ^d %,,
"CC(C)(C)OC(=O)NC(Cc1ccc(O)cc1)C(=O)NC(CCCCN)C(=O)NNC(=O)c1ccncc1 (stereo not drawn) [Substrate L1, Boc-Tyr-Lys-INH]",,,0.74 ± 0.04%,77.4 ± 5.8%,37.6 ± 5.2 ^e %,69.6 ± 4.1%,
CC(C)C[C@H](NC(=O)C(Cc1ccc(O)c(-c2cc(CC(NC(=O)OC(C)(C)C)C(=O)N[C@@H](CC(C)C)C(=O)NNC(=O)c3ccncc3)ccc2O)c1)NC(=O)OC(C)(C)C)C(=O)NNC(=O)c1ccncc1 (some centres unmarked) [DBDY-(Leu-INH)2],high sensitivity,high sensitivity,,,,,
"CC(C)(C)OC(=O)NC(Cc1ccc(O)cc1)C(=O)NCC(=O)NNC(=O)c1ccncc1 (stereo not drawn) [Substrate G1, Boc-Tyr- Gly-INH]",,,2.34 ± 0.45%,62.8 ± 2.5%,38.7 ± 2.9 ^d %,,0.74 ± 0.02%
CC(C)[C@H](NC(=O)C(Cc1ccc(O)c(-c2cc(CC(NC(=O)OC(C)(C)C)C(=O)N[C@H](C(=O)NNC(=O)c3ccncc3)C(C)C)ccc2O)c1)NC(=O)OC(C)(C)C)C(=O)NNC(=O)c1ccncc1 (some centres unmarked) [DBDY-(Val-INH)2],high sensitivity,high sensitivity,,,,,
"CC(C)(C)OC(=O)NC(Cc1c[nH]c2ccccc12)C(=O)NC(CCCCN)C(=O)NNC(=O)c1ccncc1 (stereo not drawn) [Substrate L3, Boc-Trp-Lys-INH]",,,,93.1 ± 8.9%,58.3 ± 1.2 ^e %,85.1 ± 3.7%,4.04 ± 0.08%
"CC(C)(C)OC(=O)NC(Cc1ccccc1)C(=O)NC(CCCCN)C(=O)NNC(=O)c1ccncc1 (stereo not drawn) [Substrate L2, Boc-Phe-Lys-INH]",,,,89.1 ± 2.5%,53.2 ± 4.8 ^e %,81.2 ± 4.9%,
"CC(C)(C)OC(=O)NC(Cc1c[nH]c2ccccc12)C(=O)NCC(=O)NNC(=O)c1ccncc1 (stereo not drawn) [Substrate G3, Boc-Trp-Gly-INH]",,,3.21 ± 0.45%,58.8 ± 6.2%,17.3 ± 5.5 ^d %,,0.74 ± 0.05%

# From US20150293106A1, “DIAROMATIC AMINO ACID SUBSTRATE FOR CATHEPSIN DETECTION” (INDUSTRY-ACADEMIC COOPERATION FOUNDATION, YONSEI UNIVERSITY, priority 2012, published 2015)
